Paper PMC11768584 (Viruses, 2025)
Read-outs that look alike come from different tables or passages of the source.

Tests used:
rLCMV/GFP-P2A-NP [1] = test: organism not typed; format: cell-based, LCMV; details: for EC50: Hec50, read-out: EC50, LCMV multiplication (GFP expression)
in vitro [2] = details: African green monkey, CC50 (CellTiter 96 Aqueous One)
LASV vRNP = LASV vRNP (UniProt P13699+Q6GWS6); format: cell-based
LCMV vRNP = biological target: T1, LCMV vRNP (Lymphocytic choriomeningitis virus, UniProt P09992+P14240); format: cell-based
T1 construct: expressed in transfected cells; host or cells: HEK293T
T1 sequence (P09992 whole entry): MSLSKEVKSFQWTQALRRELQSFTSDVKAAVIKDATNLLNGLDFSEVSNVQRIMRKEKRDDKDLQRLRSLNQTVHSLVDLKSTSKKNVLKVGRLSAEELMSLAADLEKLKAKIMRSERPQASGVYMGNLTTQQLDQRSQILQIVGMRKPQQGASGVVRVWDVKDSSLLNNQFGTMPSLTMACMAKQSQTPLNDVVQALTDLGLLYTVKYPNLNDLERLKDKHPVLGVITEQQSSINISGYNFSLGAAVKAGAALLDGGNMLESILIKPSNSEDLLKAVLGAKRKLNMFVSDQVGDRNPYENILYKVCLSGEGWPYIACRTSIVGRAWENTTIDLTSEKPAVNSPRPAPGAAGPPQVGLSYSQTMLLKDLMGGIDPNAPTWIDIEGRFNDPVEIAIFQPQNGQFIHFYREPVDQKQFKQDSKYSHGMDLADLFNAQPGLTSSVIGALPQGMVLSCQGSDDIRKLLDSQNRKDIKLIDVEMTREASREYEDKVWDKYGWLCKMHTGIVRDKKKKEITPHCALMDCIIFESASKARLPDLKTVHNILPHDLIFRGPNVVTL
T1 sequence (P14240 whole entry): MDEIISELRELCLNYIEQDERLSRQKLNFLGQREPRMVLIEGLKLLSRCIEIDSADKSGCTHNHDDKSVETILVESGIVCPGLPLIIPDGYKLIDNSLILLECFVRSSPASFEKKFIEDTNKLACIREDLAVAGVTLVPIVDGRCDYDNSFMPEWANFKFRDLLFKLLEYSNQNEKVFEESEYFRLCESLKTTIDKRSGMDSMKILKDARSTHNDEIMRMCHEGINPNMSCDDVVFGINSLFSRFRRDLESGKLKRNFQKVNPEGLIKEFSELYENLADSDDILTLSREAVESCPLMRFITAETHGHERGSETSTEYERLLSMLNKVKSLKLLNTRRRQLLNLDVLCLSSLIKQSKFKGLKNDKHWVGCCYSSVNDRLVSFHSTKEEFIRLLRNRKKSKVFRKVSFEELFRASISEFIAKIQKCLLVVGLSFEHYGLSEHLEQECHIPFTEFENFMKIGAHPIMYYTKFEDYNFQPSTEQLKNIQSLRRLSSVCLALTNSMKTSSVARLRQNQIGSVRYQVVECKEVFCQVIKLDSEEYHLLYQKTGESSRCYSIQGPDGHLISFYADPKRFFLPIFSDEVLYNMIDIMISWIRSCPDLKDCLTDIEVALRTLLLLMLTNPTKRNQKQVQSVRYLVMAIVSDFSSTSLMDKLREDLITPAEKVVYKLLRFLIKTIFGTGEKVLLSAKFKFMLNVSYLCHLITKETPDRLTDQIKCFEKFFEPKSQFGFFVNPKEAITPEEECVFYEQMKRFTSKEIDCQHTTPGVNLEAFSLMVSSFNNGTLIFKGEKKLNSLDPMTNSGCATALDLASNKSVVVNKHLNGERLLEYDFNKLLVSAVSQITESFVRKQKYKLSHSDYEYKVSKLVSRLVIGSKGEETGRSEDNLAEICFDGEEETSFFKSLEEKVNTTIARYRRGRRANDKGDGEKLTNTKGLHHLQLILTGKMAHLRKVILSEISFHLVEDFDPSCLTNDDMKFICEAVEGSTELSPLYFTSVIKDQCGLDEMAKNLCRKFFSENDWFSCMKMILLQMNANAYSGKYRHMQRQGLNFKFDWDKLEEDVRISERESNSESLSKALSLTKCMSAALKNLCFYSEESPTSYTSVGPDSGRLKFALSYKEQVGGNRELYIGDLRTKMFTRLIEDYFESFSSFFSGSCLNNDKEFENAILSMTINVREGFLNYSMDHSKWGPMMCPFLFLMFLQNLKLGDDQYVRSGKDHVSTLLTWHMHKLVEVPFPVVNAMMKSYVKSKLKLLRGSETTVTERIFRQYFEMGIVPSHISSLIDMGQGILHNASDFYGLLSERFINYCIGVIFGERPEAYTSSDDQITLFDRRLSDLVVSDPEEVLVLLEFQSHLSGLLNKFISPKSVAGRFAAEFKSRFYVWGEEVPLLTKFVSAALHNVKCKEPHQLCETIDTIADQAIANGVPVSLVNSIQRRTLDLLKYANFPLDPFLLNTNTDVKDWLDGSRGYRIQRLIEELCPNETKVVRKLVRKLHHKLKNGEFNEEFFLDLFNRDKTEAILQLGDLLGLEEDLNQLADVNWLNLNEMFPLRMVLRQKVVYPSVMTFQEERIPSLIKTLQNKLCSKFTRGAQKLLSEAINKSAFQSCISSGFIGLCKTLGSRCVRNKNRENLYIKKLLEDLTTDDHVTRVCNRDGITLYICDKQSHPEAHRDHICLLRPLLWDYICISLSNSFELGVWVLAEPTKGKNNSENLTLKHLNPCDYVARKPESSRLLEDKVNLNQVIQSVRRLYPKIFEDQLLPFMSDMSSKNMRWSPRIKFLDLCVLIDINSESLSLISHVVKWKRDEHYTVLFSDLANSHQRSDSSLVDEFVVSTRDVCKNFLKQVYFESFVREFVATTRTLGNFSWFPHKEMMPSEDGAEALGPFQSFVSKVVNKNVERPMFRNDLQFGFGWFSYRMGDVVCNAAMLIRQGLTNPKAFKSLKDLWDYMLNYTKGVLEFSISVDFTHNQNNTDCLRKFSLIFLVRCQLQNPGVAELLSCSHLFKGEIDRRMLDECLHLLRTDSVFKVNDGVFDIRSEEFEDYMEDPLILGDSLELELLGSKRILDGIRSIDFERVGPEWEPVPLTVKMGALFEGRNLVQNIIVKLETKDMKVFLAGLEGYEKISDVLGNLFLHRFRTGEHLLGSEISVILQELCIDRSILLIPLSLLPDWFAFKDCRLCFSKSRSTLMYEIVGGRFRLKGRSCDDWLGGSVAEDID

rLCMV/GFP-P2A-NP [3] = test: organism not typed; format: cell-based, LCMV; details: for EC50: A549, read-out: EC50, LCMV multiplication (GFP expression)
rLCMV/GFP-P2A-NP [4] = system: rLCMV/GFP-P2A-NP; design: species or system LCMV
[5] = cited from earlier work
rLCMV/GFP-P2A-NP [6] = format: cell-based, LCMV
[7] = biological target: T2, LCMV GPC (GP2-mediated fusion) (Lymphocytic choriomeningitis virus, UniProt P09991); format: cell-based
T2 construct: expressed in transfected cells; host or cells: HEK293T
T2 sequence (P09991 266-498 limits assumed): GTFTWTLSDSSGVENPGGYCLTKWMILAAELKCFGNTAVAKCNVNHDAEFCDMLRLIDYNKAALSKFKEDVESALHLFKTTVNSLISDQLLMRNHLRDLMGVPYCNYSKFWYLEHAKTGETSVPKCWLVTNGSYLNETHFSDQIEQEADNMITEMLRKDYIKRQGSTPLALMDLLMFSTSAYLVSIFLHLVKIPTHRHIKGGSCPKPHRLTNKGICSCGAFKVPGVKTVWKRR
T2 sequence (P09991 59-265 limits assumed): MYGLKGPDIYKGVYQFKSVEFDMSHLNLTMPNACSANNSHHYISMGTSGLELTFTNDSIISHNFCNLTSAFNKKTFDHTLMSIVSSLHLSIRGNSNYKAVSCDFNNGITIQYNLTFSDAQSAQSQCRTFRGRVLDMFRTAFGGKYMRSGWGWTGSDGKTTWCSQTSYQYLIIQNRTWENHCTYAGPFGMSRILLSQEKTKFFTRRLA
T2 sequence (P09991 2-58 limits assumed): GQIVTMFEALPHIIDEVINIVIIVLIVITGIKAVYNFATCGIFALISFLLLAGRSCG

in vitro [8] = details: human
[9] = system: r3JUNVCandid GFP/GFP (r3Can-GFP); format: cell-based, JUNV
mammarenavirus = details: cited from earlier work

Compound: C[C@@H]1C[C@H]2[C@@H]3CCC4=CC(=O)C=C[C@]4(C)[C@@]3(F)[C@@H](O)C[C@]2(C)[C@@]1(O)C(=O)CO [DEX, dexamethasone]
- Inhibitory activity on LCMV multiplication (in words) (rLCMV/GFP-P2A-NP [1]): very poor inhibitory activity
- Toxicity on Vero cells (in words) (Vero cells): minimal toxicity
- CC50 (in vitro [2]): 55.7 µM
- Reduction in LASV MG-directed ZsGreen expression levels vs vehicle control (LASV vRNP): ~ 28%
- Inhibition of LCMV MG activity (in words) (LCMV vRNP): minimal inhibitory activities

Compound: COC(=O)C1=C(C)NC(C)=C(C(=O)OC)C1c1ccccc1[N+](=O)[O-] [Nifidipine, nifedipine]
- Anti-LCMV activity of calcium channel blockers (in words) (rLCMV/GFP-P2A-NP [3]): did not exhibit significant anti-LCMV activity
- EC50 (rLCMV/GFP-P2A-NP [3]): > 100 µM

Compound: CN1CC(=O)N2[C@H](c3ccc4c(c3)OCO4)c3[nH]c4ccccc4c3C[C@@H]2C1=O [TAD, tadalafil]
- Inhibitory activity on LCMV multiplication (in words) (rLCMV/GFP-P2A-NP [1]): very poor inhibitory activity
- EC50 (rLCMV/GFP-P2A-NP [1]): > 100 µM
- Toxicity on Vero cells (in words) (Vero cells): minimal toxicity
- CC50 (in vitro [2]): > 100 µM
- Reduction in LASV MG-directed ZsGreen expression levels vs vehicle control (LASV vRNP): ~ 12%
- Inhibition of LCMV MG activity (in words) (LCMV vRNP): minimal inhibitory activities

Compound: Fc1ccc(C(c2ccc(F)cc2)N2CCN(C/C=C/c3ccccc3)CC2)cc1 [FLN, Flunarizine]
- Virucidal activity: effect on virion infectivity (rLCMV/GFP-P2A-NP [4]): did not significantly affect virion infectivity
- CC50 (in vitro [2]): > 100 µM
- Bound to plasma proteins [5]: More than 99%
- Reduction in LASV MG-directed ZsGreen expression levels vs vehicle control (LASV vRNP): ~ 50%
- Levels of viral (LCMV NP) RNA determined by RT-qPCR (rLCMV/GFP-P2A-NP [6]): reduced
- Virus cell propagation (GFP imaging) (rLCMV/GFP-P2A-NP [6]): reduced virus cell propagation
- GP2-mediated pH-dependent fusion (syncytium formation) [7]: inhibition of GP2-mediated fusion
- CC50 (in vitro [8]): 74.3 µM
- Inhibition of LCMV MG activity (in words) (LCMV vRNP): strongest inhibitory effect
- Inhibition of LCMV MG vRNP-directed reporter gene (GFP) expression (LCMV vRNP): ~ 75%
- Reduction in r3Can-GFP (JUNV) virus peak titers vs VC [9]: > 1 log

Compound: NCC1(CC(=O)O)CCCCC1 [Gabapentin, gabapentin]
- Anti-LCMV activity of calcium channel blockers (in words) (rLCMV/GFP-P2A-NP [3]): did not exhibit significant anti-LCMV activity
- EC50, LCMV multiplication (GFP expression) (rLCMV/GFP-P2A-NP [3]): >Flat
- CC50 (in vitro [8]): > 100 µM

Compound: COc1ccc(CCN(C)CCCC(C#N)(c2ccc(OC)c(OC)c2)C(C)C)cc1OC (stereo not drawn) [Verapamil, verapamil]
- Anti-LCMV activity of calcium channel blockers (in words) (rLCMV/GFP-P2A-NP [3]): did not exhibit significant anti-LCMV activity
- EC50 (rLCMV/GFP-P2A-NP [3]): > 100 µM
- CC50 (in vitro [8]): > 100 µM

Compound: [Cl][Ni][Cl] [Nickel Chloride, nickel chloride]
- CC50 (A549 cells): > 100 µM
- Anti-LCMV activity of calcium channel blockers (in words) (rLCMV/GFP-P2A-NP [3]): did not exhibit significant anti-LCMV activity

Compound: C=C1CC[C@H](O)C/C1=C/C=C1\CCC[C@]2(C)[C@@H]([C@H](C)/C=C/[C@H](C)C(C)C)CC[C@@H]12 [Vit D, ergocalciferol]
- Inhibitory activity on LCMV multiplication (in words) (rLCMV/GFP-P2A-NP [1]): very poor inhibitory activity
- EC50 (rLCMV/GFP-P2A-NP [1]): > 100 µM
- Toxicity on Vero cells (in words) (Vero cells): minimal toxicity
- CC50 (in vitro [2]): > 100 µM
- Reduction in LASV MG-directed ZsGreen expression levels vs vehicle control (LASV vRNP): ~ 18%
- Inhibition of LCMV MG activity (in words) (LCMV vRNP): minimal inhibitory activities

Compound: OC(c1cc(C(F)(F)F)nc2c(C(F)(F)F)cccc12)C1CCCCN1 (stereo not drawn) [MEF, mefloquine]
- selective index (SI) (rLCMV/GFP-P2A-NP [1]): 1.87
- EC50 (rLCMV/GFP-P2A-NP [1]): 15.5 µM
- CC50 (Vero cells; African green monkey): 27.3 µM
- CC50 (in vitro [2]): 29.1 µM
- Reduction in LASV MG-directed ZsGreen expression levels vs vehicle control (LASV vRNP): 5%
- Inhibition of LCMV MG activity (in words) (LCMV vRNP): minimal inhibitory activities

Compound: Clc1ccc(Cn2c(CN3CCCC3)nc3ccccc32)cc1 [clemizole]
- Anti-mammarenavirus activity (in words) (mammarenavirus): does not exhibit anti-mammarenavirus activity
